Experiments:
PI3K = PI3K (Homo sapiens, UniProt P42336); experiment: Fluorescence polarization assay for PI3K; format: biochemical; conditions: PI3Kα; read-out: PI3Kα IC50;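 note: PI3K kinase reaction on PIP2 with ATP, 30-60 min, product sensed by GST-GRP with red probe in fluorescence polarization (mP), controls without enzyme and at zero time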
breast line MDA468 = experiment: In vitro cell culture growth assay (MTS), MDA468; format: cell-based, human; conditions: Homo sapiens, 72 h, MDA468 cells, three days after drug treatment
Outline: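 Growth measured as percent of same-plate vehicle control by MTS metabolic dye conversion (A490). Breast MDA468 and prostate LNCap cells, plated a day ahead, were exposed to compounds for 3 days.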

prostate line LNCap = experiment: In vitro cell culture growth assay (MTS), LNCap; format: cell-based, human; conditions: Homo sapiens, LNCaP, 72 h, LNCap cells, three days after drug treatment;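 note: viable cell density read by absorbance at 490 nm, growth expressed as percent of vehicle-treated cells on the same plate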

Sequence of PI3K (P42336 whole entry): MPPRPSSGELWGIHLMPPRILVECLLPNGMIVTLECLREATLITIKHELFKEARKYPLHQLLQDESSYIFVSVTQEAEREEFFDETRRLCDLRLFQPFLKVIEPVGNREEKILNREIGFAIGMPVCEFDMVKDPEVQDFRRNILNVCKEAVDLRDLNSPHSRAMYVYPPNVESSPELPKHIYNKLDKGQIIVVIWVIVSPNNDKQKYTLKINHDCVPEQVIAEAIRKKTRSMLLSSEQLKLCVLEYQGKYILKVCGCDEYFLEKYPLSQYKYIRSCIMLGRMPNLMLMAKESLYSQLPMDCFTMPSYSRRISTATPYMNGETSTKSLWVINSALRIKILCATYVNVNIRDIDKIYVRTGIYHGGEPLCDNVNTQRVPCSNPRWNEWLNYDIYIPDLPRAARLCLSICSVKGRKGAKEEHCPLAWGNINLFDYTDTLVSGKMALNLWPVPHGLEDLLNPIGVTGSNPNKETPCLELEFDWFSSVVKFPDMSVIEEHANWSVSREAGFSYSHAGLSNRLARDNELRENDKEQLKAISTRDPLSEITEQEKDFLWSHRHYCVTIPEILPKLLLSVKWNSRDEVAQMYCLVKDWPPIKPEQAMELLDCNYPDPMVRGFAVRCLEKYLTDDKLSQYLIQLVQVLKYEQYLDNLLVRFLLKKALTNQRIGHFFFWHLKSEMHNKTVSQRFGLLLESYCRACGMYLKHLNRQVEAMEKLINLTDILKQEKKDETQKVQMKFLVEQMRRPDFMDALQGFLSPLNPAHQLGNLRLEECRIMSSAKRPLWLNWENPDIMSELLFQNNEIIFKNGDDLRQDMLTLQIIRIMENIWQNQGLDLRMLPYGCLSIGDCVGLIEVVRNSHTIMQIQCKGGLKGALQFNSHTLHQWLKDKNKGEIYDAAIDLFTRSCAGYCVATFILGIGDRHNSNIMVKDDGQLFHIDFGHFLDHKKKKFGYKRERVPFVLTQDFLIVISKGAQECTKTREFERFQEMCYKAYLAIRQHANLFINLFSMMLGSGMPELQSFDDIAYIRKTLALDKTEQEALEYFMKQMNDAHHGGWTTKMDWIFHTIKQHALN
Sequence of PI3K (P27986 whole entry partner): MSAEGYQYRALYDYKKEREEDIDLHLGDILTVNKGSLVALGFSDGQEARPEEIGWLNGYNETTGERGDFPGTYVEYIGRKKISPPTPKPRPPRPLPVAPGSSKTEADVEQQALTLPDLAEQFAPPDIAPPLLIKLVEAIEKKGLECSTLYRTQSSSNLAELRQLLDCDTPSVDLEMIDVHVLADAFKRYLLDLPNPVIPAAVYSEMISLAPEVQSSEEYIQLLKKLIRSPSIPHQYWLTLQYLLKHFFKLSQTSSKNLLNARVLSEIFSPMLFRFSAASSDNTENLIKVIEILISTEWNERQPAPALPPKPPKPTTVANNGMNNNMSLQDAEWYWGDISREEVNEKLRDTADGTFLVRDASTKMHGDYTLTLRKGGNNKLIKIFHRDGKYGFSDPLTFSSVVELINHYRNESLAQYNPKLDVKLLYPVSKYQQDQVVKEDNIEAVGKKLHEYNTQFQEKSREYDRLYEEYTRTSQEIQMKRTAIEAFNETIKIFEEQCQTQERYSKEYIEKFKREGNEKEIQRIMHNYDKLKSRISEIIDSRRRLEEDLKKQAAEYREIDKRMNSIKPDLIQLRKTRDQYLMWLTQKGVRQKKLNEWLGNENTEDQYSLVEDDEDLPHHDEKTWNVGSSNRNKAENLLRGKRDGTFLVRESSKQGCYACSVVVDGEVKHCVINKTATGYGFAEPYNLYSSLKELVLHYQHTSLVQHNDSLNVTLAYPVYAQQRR

Row | Structure (SMILES) | IC50 (PI3K) [nM] | IC50 (prostate line LNCap) [nM] | IC50 (breast line MDA468) [nM]
1 | O=C(Nc1ccccc1)Nc1ccc(-c2nc(N3CCOCC3)c3cnn(C4CCNCC4)c3n2)cc1 [Compound 777, 1-[4-(4-morpholin-4-yl-1-piperidin-4-yl-1H-pyrazolo[3,4-d]pyrimidin-6-yl)phenyl]-3-phenylurea] | 19 | 130 | 140
2 | O=C(Nc1ccc(-c2nc(N3CCOCC3)c3cnn(C4CCNCC4)c3n2)cc1)Nc1cccnc1 [Compound 779, 1-[4-(4-morpholin-4-yl-1-piperidin-4-yl-1H-pyrazolo[3,4-d]pyrimidin-6-yl)phenyl]-3-pyridin-3-ylurea] | 26 | 2800 | 900
3 | O=C(Nc1ccncc1)Nc1ccc(-c2nc(N3CCOCC3)c3cnn(C4CCNCC4)c3n2)cc1 [Compound 780, 1-[4-(4-morpholin-4-yl-1-piperidin-4-yl-1H-pyrazolo[3,4-d]pyrimidin-6-yl)phenyl]-3-pyridin-4-ylurea] | 16 | 2200 | 1500
4 | O=C(NCCF)Nc1ccc(-c2nc(N3CCOCC3)c3cnn(C4CCN(CC(F)(F)F)CC4)c3n2)cc1 [Compound 783, 1-(2-fluoroethyl)-3-(4-{4-morpholin-4-yl-1-[1-(2,2,2-trifluoroethyl)piperidin-4-yl]-1H-pyrazolo[3,4-d]pyrimidin-6-yl}phenyl)urea] | 1120 | 60 | 390
5 | O=C(NCCO)Nc1ccc(-c2nc(N3CCOCC3)c3cnn(C4CCN(CC(F)(F)F)CC4)c3n2)cc1 [Compound 784, 1-(2-hydroxyethyl)-3-(4-{4-morpholin-4-yl-1-[1-(2,2,2-trifluoroethyl)piperidin-4-yl]-1H-pyrazolo[3,4-d]pyrimidin-6-yl}phenyl)urea] | 380 | 100 | 1050
6 | O=C(Nc1ccc(-c2nc(N3CCOCC3)c3cnn(C4CCN(CC(F)(F)F)CC4)c3n2)cc1)Nc1ccccn1 [Compound 785, 1-(4-{4-morpholin-4-yl-1-[1-(2,2,2-trifluoroethyl)piperidin-4-yl]-1H-pyrazolo[3,4-d]pyrimidin-6-yl}phenyl)-3-pyridin-2-ylurea] | 890 | 3800 | 12000
7 | O=C(Nc1ccncc1)Nc1ccc(-c2nc(N3CCOCC3)c3cnn(C4CCN(CC(F)(F)F)CC4)c3n2)cc1 [Compound 786, 1-(4-{4-morpholin-4-yl-1-[1-(2,2,2-trifluoroethyl)piperidin-4-yl]-1H-pyrazolo[3,4-d]pyrimidin-6-yl}phenyl)-3-pyridin-4-ylurea] | 48 | 80 | 1100
8 | O=C(Nc1ccc(-c2nc(N3CCOCC3)c3cnn(C4CCN(CC(F)(F)F)CC4)c3n2)cc1)Nc1cccnc1 [Compound 787, 1-(4-{4-morpholin-4-yl-1-[1-(2,2,2-trifluoroethyl)piperidin-4-yl]-1H-pyrazolo[3,4-d]pyrimidin-6-yl}phenyl)-3-pyridin-3-ylurea] | 40 | 27 | 140
9 | O=C(Nc1ccccc1)Nc1ccc(-c2nc(N3CCOCC3)c3cnn(C4CCN(CC(F)(F)F)CC4)c3n2)cc1 [Compound 789, 1-(4-{4-morpholin-4-yl-1-[1-(2,2,2-trifluoroethyl)piperidin-4-yl]-1H-pyrazolo[3,4-d]pyrimidin-6-yl}phenyl)-3-phenylurea] | 18 | 100 | 900
10 | O=C(NCCF)Nc1ccc(-c2nc(N3CCOCC3)c3cnn(CC(F)(F)F)c3n2)cc1 [Compound 790, 1-(2-fluoroethyl)-3-{4-[4-morpholin-4-yl-1-(2,2,2-trifluoroethyl)-1H-pyrazolo[3,4-d]pyrimidin-6-yl]phenyl}urea] | 314 | 60 | 150
11 | O=C(NCCO)Nc1ccc(-c2nc(N3CCOCC3)c3cnn(CC(F)(F)F)c3n2)cc1 [Compound 791, 1-(2-hydroxyethyl)-3-{4-[4-morpholin-4-yl-1-(2,2,2-trifluoroethyl)-1H-pyrazolo[3,4-d]pyrimidin-6-yl]phenyl}urea] | 136 | 220 | 260
12 | CNC(=O)Nc1ccc(-c2nc(N3CCOCC3)c3cnn(C4CCN(CC#N)CC4)c3n2)cc1 [Compound 793, 1-(4-{1-[1-(cyanomethyl)piperidin-4-yl]-4-morpholin-4-yl-1H-pyrazolo[3,4-d]pyrimidin-6-yl}phenyl)-3-methylurea] | 76 | 1010 | 1200
13 | CCOC(=O)CN1CCC(n2ncc3c(N4CCOCC4)nc(-c4ccc(NC(=O)NC)cc4)nc32)CC1 [Compound 795, ethyl [4-(6-{4-[(methylcarbamoyl)amino]phenyl}-4-morpholin-4-yl-1H-pyrazolo[3,4-d]pyrimidin-1-yl)piperidin-1-yl]acetate] | 158 | 102 | 420
14 | CNC(=O)Nc1ccc(-c2nc(N3CCOCC3)c3cnn(C4CCN(CC5OCCO5)CC4)c3n2)cc1 [Compound 797, 1-(4-{1-[1-(1,3-dioxolan-2-ylmethyl)piperidin-4-yl]-4-morpholin-4-yl-1H-pyrazolo[3,4-d]pyrimidin-6-yl}phenyl)-3-methylurea] | 155 | 103 | 300
15 | CNC(=O)Nc1ccc(-c2nc(N3CCOCC3)c3cnn(C4CCN(CC(=O)O)CC4)c3n2)cc1 [Compound 798, [4-(6-{4-[(methylcarbamoyl)amino]phenyl}-4-morpholin-4-yl-1H-pyrazolo[3,4-d]pyrimidin-1-yl)piperidin-1-yl]acetic acid] | 438 | > 60000 | > 60000
16 | C=CCN1CCC(n2ncc3c(N4CCOCC4)nc(-c4ccc(NC(=O)NC)cc4)nc32)CC1 [Compound 799, 1-{4-[1-(1-allylpiperidin-4-yl)-4-morpholin-4-yl-1H-pyrazolo[3,4-d]pyrimidin-6-yl]phenyl}-3-methylurea] | 72 | 140 | 510
17 | CNCCOC(=O)N1CCC(n2ncc3c(N4CCOCC4)nc(-c4ccc(NC(=O)NC)cc4)nc32)CC1 [Compound 802, 2-(methylamino)ethyl 4-(6-{4-[(methylcarbamoyl)amino]phenyl}-4-morpholin-4-yl-1H-pyrazolo[3,4-d]pyrimidin-1-yl)piperidine-1-carboxylate] | 181 | 10000 | 5500

The remaining compounds from weak to strong by IC50 (PI3K), led by results:

Row | IC50 (PI3K) [nM] | IC50 (prostate line LNCap) [nM] | Structure (SMILES) | IC50 (breast line MDA468) [nM]
18 | 1740 | 1800 | COC(=O)Nc1ccc(-c2nc(N3CCOCC3)c3cnn(C4CCN(CC(F)(F)F)CC4)c3n2)cc1 [Compound 781, methyl (4-{4-morpholin-4-yl-1-[1-(2,2,2-trifluoroethyl)piperidin-4-yl]-1H-pyrazolo[3,4-d]pyrimidin-6-yl}phenyl)carbamate] | 7900
19 | 766 | 60 | CCNC(=O)Nc1ccc(-c2nc(N3CCOCC3)c3cnn(C4CCN(CC(F)(F)F)CC4)c3n2)cc1 [Compound 782, 1-ethyl-3-(4-{4-morpholin-4-yl-1-[1-(2,2,2-trifluoroethyl)piperidin-4-yl]-1H-pyrazolo[3,4-d]pyrimidin-6-yl}phenyl)urea] | 300
20 | 734 | 120 | O=C(Nc1ccc(-c2nc(N3CCOCC3)c3cnn(C4CCN(CC(F)(F)F)CC4)c3n2)cc1)NC1CC1 [Compound 788, 1-cyclopropyl-3-(4-{4-morpholin-4-yl-1-[1-(2,2,2-trifluoroethyl)piperidin-4-yl]-1H-pyrazolo[3,4-d]pyrimidin-6-yl}phenyl)urea] | 1600
21 | 173 | 1000 | CNC(=O)Nc1ccc(-c2nc(N3CCOCC3)c3cnn(C4CCN(C(=O)OCCN(C)C)CC4)c3n2)cc1 [Compound 803, 2-(dimethylamino)ethyl 4-(6-{4-[(methylcarbamoyl)amino]phenyl}-4-morpholin-4-yl-1H-pyrazolo[3,4-d]pyrimidin-1-yl)piperidine-1-carboxylate] | 1000
22 | 154 | 1300 | O=C(Nc1ccc(-c2nc(N3CCOCC3)c3cnn(C4CCNCC4)c3n2)cc1)Nc1ccccn1 [Compound 778, 1-[4-(4-morpholin-4-yl-1-piperidin-4-yl-1H-pyrazolo[3,4-d]pyrimidin-6-yl)phenyl]-3-pyridin-2-ylurea] | 1600
23 | 126 | 140 | CNC(=O)Nc1ccc(-c2nc(N3CCOCC3)c3cnn(C4CCN(CC(=O)OC)CC4)c3n2)cc1 [Compound 794, methyl [4-(6-{4-[(methylcarbamoyl)amino]phenyl}-4-morpholin-4-yl-1H-pyrazolo[3,4-d]pyrimidin-1-yl)piperidin-1-yl]acetate] | 500
24 | 119 | 140 | CNC(=O)Nc1ccc(-c2nc(N3CCOCC3)c3cnn(C4CCN(C(=O)OCCOC)CC4)c3n2)cc1 [Compound 800, 2-methoxyethyl 4-(6-{4-[(methylcarbamoyl)amino]phenyl}-4-morpholin-4-yl-1H-pyrazolo[3,4-d]pyrimidin-1-yl)piperidine-1-carboxylate] | 260
25 | 50 | 31 | CC#CCOC(=O)N1CCC(n2ncc3c(N4CCOCC4)nc(-c4ccc(NC(=O)NC)cc4)nc32)CC1 [Compound 801, but-2-yn-1-yl 4-(6-{4-[(methylcarbamoyl)amino]phenyl}-4-morpholin-4-yl-1H-pyrazolo[3,4-d]pyrimidin-1-yl)piperidine-1-carboxylate] | 120
26 | 10 | < 27 | O=C(Nc1ccc(-c2nc(N3CCOCC3)c3cnn(CC(F)(F)F)c3n2)cc1)Nc1cccnc1 [Compound 792, 1-{4-[4-morpholin-4-yl-1-(2,2,2-trifluoroethyl)-1H-pyrazolo[3,4-d]pyrimidin-6-yl]phenyl}-3-pyridin-3-ylurea] | < 27

From patent US20080234262A1 (Wyeth, priority 2007, published 2008)
